“And” between values parts separate entries of the source, which are not always exact repeats. Identical values can stand only once. Like-named read-outs stand apart in the source and are kept apart here.
Key:
[1] = α helical content by CD spectra; format: physicochemical
Procedure: α Helical Content of Cationic Peptides by CD Spectra
The α helical content of the peptides were measured in buffer, liposomes and 20% Hexafluoroisopropanol (HFPIP). The liposomes constituted of POPC alone or POPC and POPC and 30% POPG (Table 7).

LPS = test: Dansyl polymyxin displacement assay; format: binding; conditions: Dansyl polymyxin displacement from LPS
Description: In addition, the peptides of SEQ ID NO: 5-8 also bound effectively to LPS with high affinity based on Dansyl polymyxin displacement assays (Table 5).

X. maltophila = test: organism not typed; conditions: agent alone
Procedure: (§1) FICs are performed by checkerboard titrations of peptides in one dimension of a microtiter plate, and of antibiotics in the other dimension, for example. The FIC is calculated by looking at the impact of one antibiotic on the MIC of the other and vice versa. […] Preferably, an FIC of less than 0.5 is obtained for synergism. As used herein, FIC can be determined as follows: [formula]
(§2) Synergism is identified as an FIC of about ≦0.5.

Red Blood Cells = test: Red blood cell lysis; format: cell-based; conditions: concentration lysing Red Blood Cells
Candida albicans = test: MIC, broth dilution in LB-S; format: cell-based
Procedure: as §1
(§3) Briefly, cells were grown overnight at 37° C. in LB-S (Luria broth without any salt supplement) and diluted one in 10,000 in the same medium to give concentrations of about 10^4 to 10^5 CFU/ml. The broth dilutions were set up in a 96 well microtiter plate by putting 200 μl of LB-S containing the initial concentration of antibiotic or compound in column 1 and 100 μl of the same medium in columns 2-12. The compounds were diluted by taking 100 μl of broth from column 1 and mixing it with column 2, resulting in a one in two dilution. This was continued to column 10. Finally, 10 μl of bacteria were pipetted into columns 1-11, and the plates incubated overnight at 37° C. The next day the plates were scored for growth in the wells, and the MIC determined.

P. aeruginosa [2] = test: microbe, parasite or virus in culture; conditions: agent alone
Procedure: as §1, §2

E. cloacae [3] = conditions: agent alone
Procedure: as §1, §2

A. calcoaceticus [4] = conditions: agent alone
Procedure: as §1, §2

E. coli ML 35 = test: Inner membrane permeabilization (ONPG hydrolysis by β-galactosidase); format: cell-based; conditions: E. coli ML 35, ONPG
Procedure: Inner membrane permeability was determined by measurement in E. coli ML 35 of β-galactosidase activity using ONPG as a substrate. Normally ONPG cannot pass across the cytoplasmic membrane to permit hydrolysis by the cytoplasmic enzyme β-galactosidase. However, cationic peptides, by permeabilizing the inner membrane, unmasks this enzyme leading to color development as ONP is released. […] Addition of citrate increased the lag time before the peptides were able to permeabilize the membranes. When the experiments were executed in cation adjusted media (CAMHB), the lag time was increased up to 30 minutes.

K. pneumoniae = test: MIC, broth dilution in LB-S; format: cell-based; conditions: additional MICs
Procedure: (§4) The biological activity of the peptides can be determined by standard methods known to those of skill in the art, such as “minimal inhibitory concentration (MIC)” assay described in the present examples, whereby the lowest concentration at which no change in OD is observed for a given period of time is recorded as MIC. Alternatively, “fractional inhibitory concentration (FIC)” is also useful for determination of synergy between the peptides of the invention, or the peptides in combination with known antibiotics. FICs are performed by checkerboard titrations of peptides in one dimension of a microtiter plate, and of antibiotics in the other dimension, for example. The FIC is calculated by looking at the impact of one antibiotic on the MIC of the other and vice versa. […] Preferably, an FIC of less than 0.5 is obtained for synergism. As used herein, FIC can be determined as follows: [formula]
as §3

E. cloacae [5] = test: MIC, broth dilution in LB-S; format: cell-based; conditions: additional MICs
Procedure: as §4, §3

E. faecalis = test: MIC, broth dilution in LB-S; format: cell-based; conditions: Table 1b, separate set of experiments
Procedure: as §4, §3

S. aureus = test: MIC, broth dilution in LB-S; format: cell-based
Procedure: as §4, §3

A. calcoaceticus [6] = test: MIC, broth dilution in LB-S; format: cell-based; conditions: additional MICs
Procedure: as §4, §3

E. coli = test: MIC, broth dilution in LB-S; format: cell-based
Procedure: as §4, §3

X maltophilia = test: MIC, broth dilution in LB-S; format: cell-based; conditions: additional MICs
Procedure: as §4, §3

P. aeruginosa [7] = system: P. aeruginosa
Procedure: as §1, §3

S. epidermis = conditions: S. epidermis
Procedure: as §1, §3

CC[C@H](C)[C@H](NC(=O)[C@H](CC(C)C)NC(=O)[C@H](C)NC(=O)[C@@H]1CCCN1C(=O)[C@H](CC(C)C)NC(=O)CNC(=O)[C@@H](NC(=O)[C@@H](NC(=O)[C@H](CC(C)C)NC(=O)[C@@H](NC(=O)[C@H](CCCCN)NC(=O)[C@H](CCCCN)NC(=O)[C@@H](NC(=O)[C@H](C)NC(=O)[C@@H](NC(=O)[C@@H](NC(=O)[C@H](CC(C)C)NC(=O)[C@H](CCCCN)NC(=O)[C@H](CCCCN)NC(=O)[C@@H](NC(=O)[C@H](Cc1ccccc1)NC(=O)[C@H](CO)NC(=O)[C@H](CCCCN)NC(=O)[C@H](Cc1c[nH]c2ccccc12)NC(=O)[C@@H](N)CCCCN)[C@@H](C)CC)[C@@H](C)O)[C@@H](C)O)C(C)C)C(C)C)[C@@H](C)O)[C@@H](C)O)C(=O)N[C@@H](CO)C(=O)O [MBI 29]
% α helicity ([1]; 20% HFIP): 50% | % α helicity ([1]; Buffer): 0% | % α helicity ([1]; POPC Liposomes): 16% | % α helicity ([1]; POPC/POPG Liposomes (30% POPG)): 8% | 1max (LPS): 40% | MIC (X. maltophila; X. maltophila isolate 35, strain 6): 32 µg/mL and 16 µg/mL | MIC (X. maltophila; X. maltophila isolate 36, strain 16): 32 µg/mL | MIC (X. maltophila; X. maltophila isolate 37, strain 3095): 64 µg/mL | MIC (X. maltophila; X. maltophila isolate 38, strain 7901): 64 µg/mL | MIC (X. maltophila; X. maltophila isolate 39, strain B3110.1): 32 µg/mL | MIC (X. maltophila; X. maltophila isolate 40, strain R1302-1): 32 µg/mL and 64 µg/mL | MIC (X. maltophila; X. maltophila isolate 41, strain R4230): 16 µg/mL and 32 µg/mL | MIC (X. maltophila; X. maltophila isolate 43, strain TF29-2): 16 µg/mL and 32 µg/mL | RBC Lysis (Red Blood Cells): >55 µg/mL | MIC (Candida albicans; Candida albicans (CAN105), Table 1b, separate set of experiments): 32 µg/mL | MIC (Candida albicans; Candida alibicans (CAN105), Table 1a): 40 µg/mL | MIC (P. aeruginosa [2]; P. aeruginosa isolate 23, strain ATCC 27853): 32 µg/mL and 64 µg/mL | MIC (P. aeruginosa [2]; P. aeruginosa isolate 24, strain 34): 32 µg/mL and 16 µg/mL | MIC (P. aeruginosa [2]; P. aeruginosa isolate 25, strain 923-1): 32 µg/mL and 64 µg/mL | MIC (P. aeruginosa [2]; P. aeruginosa isolate 26, strain 3101): 32 µg/mL and 64 µg/mL | MIC (P. aeruginosa [2]; P. aeruginosa isolate 29, strain 15545): 32 µg/mL and 64 µg/mL | MIC (P. aeruginosa [2]; P. aeruginosa isolate 32, strain W2897-1): 32 µg/mL and 64 µg/mL | MIC (E. cloacae [3]; E. cloacae isolate 12, strain ATCC 13047): 32 µg/mL and 64 µg/mL | MIC (E. cloacae [3]; E. cloacae isolate 14, strain 938-2): 32 µg/mL and 16 µg/mL | MIC (E. cloacae [3]; E. cloacae isolate 15, strain B5546): 32 µg/mL | MIC (E. cloacae [3]; E. cloacae isolate 17, strain R4148-2): 16 µg/mL and 32 µg/mL | MIC (E. cloacae [3]; E. cloacae isolate 18, strain 3077): 32 µg/mL | MIC (E. cloacae [3]; E. cloacae isolate 19, strain 3356): 32 µg/mL | MIC (A. calcoaceticus [4]; A. calcoaceticus isolate 1, strain ATCC 23055): 32 µg/mL and 64 µg/mL | MIC (A. calcoaceticus [4]; A. calcoaceticus isolate 7, strain 8222): 16 µg/mL and 32 µg/mL | MIC (A. calcoaceticus [4]; A. calcoaceticus isolate 8, strain 8223): 16 µg/mL and 32 µg/mL | MIC (A. calcoaceticus [4]; A. calcoaceticus isolate 9, strain 8224): 16 µg/mL and 32 µg/mL | MIC (A. calcoaceticus [4]; A. calcoaceticus isolate 10, strain 8225): 16 µg/mL and 32 µg/mL | MIC (A. calcoaceticus [4]; A. calcoaceticus isolate 11, strain 8226): 16 µg/mL and 32 µg/mL | Lag Time (E. coli ML 35): 66 s | Rate of Hydrolysis (E. coli ML 35): 0.21 ΔAU min^−1 | MIC (K. pneumoniae): 16 µg/mL | MIC (E. cloacae [5]): 2 µg/mL | MIC (E. faecalis): 32 µg/mL | MIC (E. faecalis; listed as MBI 29^me): ≧64 | MIC (S. aureus; S. aureus (K 147), Table 1a): 20 µg/mL | MIC (S. aureus; S. aureus (K147), Table 1b, separate set of experiments): 32 µg/mL | MIC (S. aureus; S. aureus (K147), Table 1b, separate set of experiments, listed as MBI 29^me): 16 µg/mL | MIC (S. aureus; S. aureus (SAP0017), Table 1a): 18 µg/mL | MIC (S. aureus; S. aureus (SAP0017), Table 1b, separate set of experiments): 32 µg/mL | MIC (S. aureus; S. aureus (SAP0017), Table 1b, separate set of experiments, listed as MBI 29^me): 16 µg/mL | MIC (A. calcoaceticus [6]): 4 µg/mL | MIC (E. coli; E. coli 0111:B4, additional MICs): 2 µg/mL | MIC (E. coli; E. coli (UB1005), Table 1a): 3 µg/mL | MIC (E. coli; E. coli (UB1005), Table 1b, separate set of experiments): 4 µg/mL | MIC E. coli (UB 1005) (E. coli; E. coli (UB 1005), Table 6): 0.5 µg/mL | MIC (E. coli; E. coli. Bort, additional MICs): 6 µg/mL | MIC (X maltophilia): 3 µg/mL | MIC (P. aeruginosa [7]; P. aeruginasa (H 103), additional MICs): 4 µg/mL | MIC (P. aeruginosa [7]; P. aeruginosa (H187), Table 1a): 5 µg/mL | MIC (P. aeruginosa [7]; P. aeruginosa (H187), Table 1b, separate set of experiments): 16 µg/mL | MIC (P. aeruginosa [7]; P. aeruginosa (H187), Table 1b, separate set of experiments, listed as MBI 29^me): 8 µg/mL | MIC P. aeruginosa (H187) (P. aeruginosa [7]; P. aeruginosa (H187), Table 6): 1.0 µg/mL | MIC (S. epidermis; Table 1a): 10 µg/mL | MIC (S. epidermis; Table 1b, separate set of experiments): 16 µg/mL | MIC (S. epidermis; Table 1b, separate set of experiments, listed as MBI 29^me): 8 µg/mL

Reference: patent US6906035B2, “Antimicrobial cationic peptides” (priority 1995, dated 2005)
